Laboratory results from US20190031717A1, “MULTI-FUNCTIONAL FUSION POLYPEPTIDE, PREPARATION METHOD THEREOF, AND APPLICATION OF SAME” (NANJING ANJI BIOLOGICAL TECHNOLOGY CO., LTD, priority 2016, published 2019).

Assays:
[1] = system: Mycoplasma pneumoniae; test: Mouse pneumonia model, mycoplasma; type: in vivo, BALB/C mice; parameters: concentration or dose not given beside the values; settings: mean ± SD
Method: (§1) The mouse pneumonia model was successfully established by the nose-drop method. To build the mouse pneumonia model, BALB/C mice with a body mass of 16-22 g were selected and anesthetized pneumonia chain was prepared after anesthesia with ether on day 0, day 1, and day 2. Staphylococcal fluid, adenovirus concentrate, Mycoplasma pneumoniae, Chlamydia pneumoniae, protozoa, and pneumonia fungi were slowly dripped into the nasal cavity of the mice, so that they enter the tracheobronchial. During the operation process, care was exercised to prevent bacterial fluid from flowing into the esophagus, which leads to inactivation the bacterial fluid. After successful model establishment, the polypeptides of the present invention were administered, and the results were shown in Table 5. […] The results were expressed in average value±standard deviation.

[2] = system: Adenosquamous carcinoma; test: MTT assay, lung cancer tumor cells; type: cell-based, human; parameters: concentration or dose not given beside the values; settings: 48 h, mean ± SD
Method: (§2) The inhibition of the growth of human lung cancer tumor cells by the polypeptide of the present invention was examined by MTT assay. The lung cancer tumor cells were cultured in a 37° C., 5% (volume fraction) CO2 incubator to a density of 90% or more, and collected by trypsinization. The cells were resuspended in the culture medium and counted under a microscope to adjust the cell concentration to 2.0×10^4 cells/mL, the cell suspension was inoculated into a 96-well plate at 100 μL per well, and cultured overnight at 37° C. in a 5% (volume fraction) CO2 incubator. After the cells were completely adhered, the polypeptide of the present invention was added as a drug-administered group, and a culture solution containing no drug was used as a blank control group, and the culture solution was diluted to each predetermined concentration. Each dilution was separately added to a 96-well plate at 100 μL per well and incubated for 48 h at 37° C. in a 5% (volume fraction) CO2 incubator. 20 μL of 5 mg/mL MTT was added to each well of a 96-well plate, and incubation was continued for 4 hours. The medium was aspirated, and the cells were dissolved in 100 μL of DMSO per well. The absorbance was measured by a microplate reader at a detection wavelength of 570 nm and a reference wavelength of 630 nm, and the growth inhibition rate was calculated as follows: tumor growth inhibition rate (%)=(1−administered group absorbance value/unadministered group absorbance value)×100%, and the experiment was repeated 3 times independently. The results obtained by the test were expressed as mean±standard deviation. The results in Table 6 indicate that the polypeptides of the present invention have a good inhibitory effect on proliferation of a variety of human lung cancer tumors (FIG. 5).

[3] = system: Large cell lung cancer; test: MTT assay, lung cancer tumor cells; type: cell-based, human; parameters: concentration or dose not given beside the values; settings: 48 h, mean ± SD
Method: as §2

[4] = system: Non-small cell lung cancer; test: MTT assay, lung cancer tumor cells; type: cell-based, human; parameters: concentration or dose not given beside the values; settings: 48 h, mean ± SD
Method: as §2

[5] = system: protozoa; test: Mouse pneumonia model, protozoal; type: in vivo, BALB/C mice; parameters: concentration or dose not given beside the values; settings: mean ± SD
Method: as §1

[6] = system: Pneumonia caused by lung infection; test: Mouse pneumonia model, pneumonia caused by lung infection; type: in vivo, BALB/C mice; parameters: concentration or dose not given beside the values; settings: mean ± SD
Method: as §1

[7] = system: Staphylococcal fluid; test: Mouse pneumonia model, bacterial; type: in vivo, BALB/C mice; parameters: concentration or dose not given beside the values; settings: mean ± SD
Method: as §1

[8] = system: A549 cells induced by TGF-β1 (lung fibrosis model); test: Hydroxyproline content in TGF-β1-induced A549 pulmonary fibrosis cell model; type: cell-based, human; settings: for Hydroxyproline Content Inhibition Rate in the Pulmonary Fibrosis Model: 48 hours
Method: Human non-small cell lung cancer cells A549 were cultured in DMEM medium containing 10% (volume fraction) fetal bovine serum, cultured in a carbon dioxide incubator with a volume fraction of 5% at 37° C., and changed once every other day, depending on cell density. A549 cells in logarithmic growth phase were digested with 0.25% trypsin to prepare a cell suspension, adjusted to a cell concentration of 1×10^9 cells/L, and seeded at a density of 4×10^5 cells/cm2 in a cell culture dish of 90 cm^2. The cells were randomly divided into two groups: (1) control group: cultured in DMEM containing 10% (volume fraction) fetal bovine serum; (2) model group: containing 10% (volume fraction) fetal bovine serum, transforming growth factor (TGF-β1, final concentration 5 μg/L) was cultured in DMEM. The cells were cultured at 37° C. in a volumetric 5% carbon dioxide incubator, and changed every other day, depending on the cell density. Cell morphology was observed daily using an inverted microscope to determine when the model was established. When A549 cells are changed from the cobblestone shape of the original epithelial cells to the long spindle shape of the interstitial cells, the modeling is successfully established.
After 48 hours of addition of the polypeptides, the cells of the control group, the model group, and the administration group were collected for subsequent measurement of molecular markers related to pulmonary fibrosis.
Hydroxyproline accounts for 13.4% of collagen, so the content of hydroxyproline can reflect the accumulation of collagen during pulmonary fibrosis, which in turn reflects the degree of pulmonary fibrosis.
Prepare citric acid buffer: 120 g of sodium citrate, 12 mL of glacial acetic acid, 46 g of citric acid, 34 g of sodium hydroxide, dissolved in distilled water, adjust the pH to 6.0, and then dilute to 1000 mL.
Prepare 0.05 mol/L chloramine T solution: weigh 7.05 g of chloramine T, dissolve in 100 mL of distilled water, then add 150 mL of ethylene glycol, and add 250 mL of citric acid buffer to mix well.
Prepare p-dimethylaminobenzaldehyde: Reagent A: Take 20 mL of absolute ethanol, slowly add 2.74 mL of concentrated sulfuric acid; Reagent B: Take 12.0 g of p-dimethylaminobenzaldehyde, slowly add 40 mL of absolute ethanol. Heat in a water bath to completely dissolve and cool to room temperature, then slowly add the A solution to B and mix well.
Prepare a […] perchloric acid solution: take 27 mL of perchloric acid and dilute to 100 mL with distilled water.
The specific steps are as follows: collect the cells in a 1 mL water solution and lyse the cells using a homogenizer; adjust the pH to neutral, dilute to 3 mL, add activated carbon to centrifuge; take 1 mL supernatant, add 1 mL solution 1 (1 mL citrate buffer and 1 mL 0.05 mol/L chloramine T solution), stand for 10 minutes, add 1 mL of perchloric acid, stand for 5 minutes, add 1 mL of p-dimethylaminobenzaldehyde reagent, keep in 60° C. water bath for 15 minutes; centrifuge at 3500 rpm/min for 10 minutes, take the supernatant to measure the absorbance value at a wavelength of 550 nm.
The test was repeated 3 times independently, and the inhibition rate was calculated as follows: inhibition rate (%)=(1−experimental group absorbance/model group absorbance)×100%.

[9] = system: adenovirus concentrate; test: Mouse pneumonia model, viral; type: in vivo, BALB/C mice; settings: mean ± SD
Method: as §1

[10] = system: pneumonia fungi; test: Mouse pneumonia model, fungal; type: in vivo, BALB/C mice; parameters: concentration or dose not given beside the values; settings: mean ± SD
Method: as §1

[11] = system: Chlamydia pneumoniae; test: Mouse pneumonia model, chlamydia; type: in vivo, BALB/C mice; parameters: concentration or dose not given beside the values; settings: mean ± SD
Method: as §1

Ile-Val-Arg-Arg-Ala-Asp-Arg-Ala-Ala-Val-Pro-Gly-Gly-Gly-Gly-Arg-Gly-Asp-Gly-Gly-Gly-Gly-Pro-(D-Pyr)-(D-Cys)-Bip-Arg-Gly-Glu [Polypeptide V]
Inhibitory Effects on Various Pulmonary Infections [1]: 34.37 ± 14.40%
tumor growth inhibition rate, MTT Assay [2]: 51.56 ± 13.97%
tumor growth inhibition rate, MTT Assay [3]: 75.74 ± 16.27%
tumor growth inhibition rate, MTT Assay [4]: 79.78 ± 20.01%
Inhibitory Effects on Various Pulmonary Infections [5]: 53.19 ± 20.63%
Inhibitory Effects on Various Pulmonary Infections [6]: 44.61 ± 18.63%
Inhibitory Effects on Various Pulmonary Infections [7]: 38.12 ± 11.17%
effect on content of hydroxyproline in lung fibrosis model cells (FIG. 1-3), in words [8]: can inhibit the content of hydroxyproline in lung fibrosis model cells
Hydroxyproline Content Inhibition Rate in the Pulmonary Fibrosis Model ([8]; 4 uM): 34.47%
Hydroxyproline Content Inhibition Rate in the Pulmonary Fibrosis Model ([8]; 8 uM): 49.25%
Inhibitory Effects on Various Pulmonary Infections [9]: 50.35 ± 15.73%
Inhibitory Effects on Various Pulmonary Infections [10]: 50.50 ± 16.77%
Inhibitory Effects on Various Pulmonary Infections [11]: 40.40 ± 15.13%

Pro-(D-Pyr)-(D-Cys)-Bip-Arg-Gly-Glu-Gly-Gly-Gly-Gly-Arg-Gly-Asp-Gly-Gly-Gly-Gly-Ile-Val-Arg-Arg-Ala-Asp-Arg-Ala-Ala-Val-Pro [Polypeptide VI]
Inhibitory Effects on Various Pulmonary Infections [1]: 35.87 ± 12.71%
tumor growth inhibition rate, MTT Assay [2]: 53.80 ± 12.33%
tumor growth inhibition rate, MTT Assay [3]: 79.04 ± 14.36%
tumor growth inhibition rate, MTT Assay [4]: 83.25 ± 17.67%
Inhibitory Effects on Various Pulmonary Infections [5]: 55.50 ± 18.21%
Inhibitory Effects on Various Pulmonary Infections [6]: 46.55 ± 16.44%
Inhibitory Effects on Various Pulmonary Infections [7]: 39.78 ± 9.86%
effect on content of hydroxyproline in lung fibrosis model cells (FIG. 1-3), in words [8]: can inhibit the content of hydroxyproline in lung fibrosis model cells
Hydroxyproline Content Inhibition Rate in the Pulmonary Fibrosis Model ([8]; 4 uM): 29.55%
Hydroxyproline Content Inhibition Rate in the Pulmonary Fibrosis Model ([8]; 8 uM): 54.17%
Inhibitory Effects on Various Pulmonary Infections [9]: 52.54 ± 13.88%
Inhibitory Effects on Various Pulmonary Infections [10]: 52.69 ± 14.80%
Inhibitory Effects on Various Pulmonary Infections [11]: 42.16 ± 13.36%

Arg-Gly-Asp-Gly-Gly-Gly-Gly-Pro-(D-Pyr)-(D-Cys)-Bip-Arg-Gly-Glu-Gly-Gly-Gly-Gly-Ile-Val-Arg-Arg-Ala-Asp-Arg-Ala-Ala-Val-Pro [Polypeptide III]
Inhibitory Effects on Various Pulmonary Infections [1]: 42.44 ± 11.96%
tumor growth inhibition rate, MTT Assay [2]: 63.67 ± 11.60%
tumor growth inhibition rate, MTT Assay [3]: 93.53 ± 17.04%
tumor growth inhibition rate, MTT Assay [4]: 91.58 ± 17.95%
Inhibitory Effects on Various Pulmonary Infections [5]: 65.68 ± 18.50%
Inhibitory Effects on Various Pulmonary Infections [6]: 55.08 ± 15.52%
Inhibitory Effects on Various Pulmonary Infections [7]: 47.07 ± 13.26%
effect on content of hydroxyproline in lung fibrosis model cells (FIG. 1-3), in words [8]: can inhibit the content of hydroxyproline in lung fibrosis model cells
Hydroxyproline Content Inhibition Rate in the Pulmonary Fibrosis Model ([8]; 4 uM): 30.66%
Hydroxyproline Content Inhibition Rate in the Pulmonary Fibrosis Model ([8]; 8 uM): 56.21%
Inhibitory Effects on Various Pulmonary Infections [9]: 62.17 ± 17.51%
Inhibitory Effects on Various Pulmonary Infections [10]: 62.35 ± 17.56%
Inhibitory Effects on Various Pulmonary Infections [11]: 49.88 ± 14.05%

Ile-Val-Arg-Arg-Ala-Asp-Arg-Ala-Ala-Val-Pro-Gly-Gly-Gly-Gly-Pro-(D-Pyr)-(D-Cys)-Bip-Arg-Gly-Glu-Gly-Gly-Gly-Gly-Arg-Gly-Asp [Polypeptide II]
Inhibitory Effects on Various Pulmonary Infections [1]: 39.16 ± 11.16%
tumor growth inhibition rate, MTT Assay [2]: 58.73 ± 10.82%
tumor growth inhibition rate, MTT Assay [3]: 86.28 ± 15.90%
tumor growth inhibition rate, MTT Assay [4]: 90.88 ± 16.75%
Inhibitory Effects on Various Pulmonary Infections [5]: 60.59 ± 17.27%
Inhibitory Effects on Various Pulmonary Infections [6]: 50.81 ± 14.48%
Inhibitory Effects on Various Pulmonary Infections [7]: 43.43 ± 12.38%
effect on content of hydroxyproline in lung fibrosis model cells (FIG. 1-3), in words [8]: can inhibit the content of hydroxyproline in lung fibrosis model cells
Hydroxyproline Content Inhibition Rate in the Pulmonary Fibrosis Model ([8]; 4 uM): 31.28%
Hydroxyproline Content Inhibition Rate in the Pulmonary Fibrosis Model ([8]; 8 uM): 57.35%
Inhibitory Effects on Various Pulmonary Infections [9]: 57.35 ± 16.34%
Inhibitory Effects on Various Pulmonary Infections [10]: 57.52 ± 16.39%
Inhibitory Effects on Various Pulmonary Infections [11]: 46.02 ± 13.12%
